Tests used:
[1] = system: larvae that lack exogenous expression of Trpa1b in cardiomyocytes; assay: Heartbeat experiment in larvae that lack exogenous expression of Trpa1b in cardiomyocytes; format: in vivo, zebrafish; details: no exogenous Trpa1b in cardiomyocytes
WT embryos = assay: Rescue experiment, WT embryos; format: in vivo, zebrafish; details: 20 μM, motion within 5 s after 1 s WL3
Method: (§1) For Trpa1b ohnolog and paralog rescue experiments, Trpa1b^−/− embryos were injected with ngn1:zTrpa1b-2A-mCherry (partial plasmid sequence in SEQ ID NO:5), ngn1:zTrpa1a-2A-mCherry, ngn1:hTRPA1-2A-EGFP or ngn1:mTRPA1-2A-mCherry at the 1-cell stage for mosaic Rohon-beard neuron expression. Embryos were screened at 2 dpf for fluorescent expression in Rohon-beard neurons, incubated with 20 μM TRPswitch-B for 1 hr and decapitated posterior to the eyes right before experiments. NA 0.25 5× objective and 1 s WL3 light illumination was used.
(§2) To test the potential cross activity of TRPswitch-B on the zebrafish ohnolog Trpa1a and on mammalian orthologs, zebrafish Trpa1a, mouse TRPA1 or human TRPA1 were transiently re-expressed in the Rohon-beard neurons of mutant Trpa1b^−/− zebrafish and performed light-induced motion response experiments in the presence of TRPswitch-B. Rescue experiments were performed in Trpa1b^−/− zebrafish with transient mosaic re-expression of zebrafish Trpa1b (zTrpa1b), zebrafish Trpa1a (zTrpa1a), mouse TRPA1 (mTRPA1) or human TRPA1 (hTRAP1) in Rohon-beard neurons. Embryos were pre-treated with 20 μM TRPswitch-B and decapitated right before light stimulation to eliminate the light response mediated by the retina (Table 5). […]

Trpa1b−/− embryos = assay: Rescue experiment, Trpa1b−/− embryos without re-expression; format: in vivo, zebrafish; details: 20 μM, motion within 5 s after 1 s WL3
Method: as §1, §2

Trpa1b = assay: Heartbeat interruption in larvae expressing Trpa1b in cardiomyocytes; format: in vivo, zebrafish; details: 20 μM
Method: Heartbeat interruption experiments were performed in vivo on 2 dpf Tg(cm/c2:Trpa1b-2A-EGFP) larvae in a Trpa1b^−/− background. Larvae were pretreated with 20 μM of TRPswitch-A or TRPswitch-B in E3 at a final concentration of 1% DMSO for 1 h in the dark at 28.5° C. before experimental manipulation. Immediately prior to the onset of experiments, E3 solution was replaced with 0.2 mg/mL tricaine (Sigma, A5040) in E3 for anesthetizing the larvae. Violet light (352-402 nm) and green light (500-600 nm) were used for E to Z and Z to E isomerization, respectively. Violet and green light excitation were achieved using a band pass filter FF01-377/50 and an et500lp long pass barrier filter, respectively, together with a t600plxxr dichroic mirror and a 300-Watt xenon bulb light source (Sutter Instrument). Experiments were performed using a NA 0.6 40× air objective at room temperature. The zebrafish heart in the whole field of view was illuminated with 1 s violet light followed by various lengths of green light as indicated. Ventricle width measurement was performed using the ImageJ ‘measure’ function on the widest outer ventricle width every 100 ms.

zebrafish Trpa1b [2] = assay: Whole cell current in CCD-18Co cells transfected with zebrafish Trpa1b; format: cell-based; details: CCD-18Co transfected with zTrpa1b
Method: Immortalized HEK293T cells or human colonic fibroblast cells (CCD-18Co; ATCC) were used. HEK293T cells were plated on […] cover slips and transiently transfected with 10 μg of Trpa1b plasmid (pCMV-zTrpa1b-FLAG) (SEQ ID NO:3) and 5 μg of mNeonGreen cDNA (Allele Biotechnology), then grown in a 6 cm plate for 24-48 h. CCD-18Co were cultured in Eagle's minimal essential medium with 10% FBS, 1× penicillin and streptomycin. CCD-18Co cells were plated on 12 mm cover slips and transiently transfected with 5 μg of zTrpa1b plasmid (pCMV-zTrpa1b-FLAG) together with 5 μg of mNeonGreen cDNA (Allele Biotechnology), then grown in a […] plate for 48-72 h. After this time, the cover slips were transferred to a recording chamber containing an extracellular solution composed of 145 mM sodium gluconate, 4 mM KCl, 3 mM MgCl2, 10 mM D-glucose, 10 mM HEPES; pH 7.4 adjusted with NaOH. The internal solution contained 122 mM cesium methane sulfonate, 1.8 mM MgCl2, 9 mM EGTA, 14 mM creatine phosphate (sodium salt), 4 mM Mg-ATP, 0.3 mM Na-GTP, 10 mM HEPES, pH 7.2 adjusted with CsOH. […] Whole cell currents were measured on an Axopatch 200B amplifier (Molecular De-vices) under the control of pClamp software. […] Basal Trpa1b whole cell currents were measured with a ramp protocol (˜100 to +100 mV, at a holding potential of 0 mV). […] The p values were calculated using a two-tailed, paired Student's t-test.

zebrafish Trpa1b [3] = assay: Whole-cell patch-clamp of HEK293T cells expressing zebrafish Trpa1b; format: cell-based
Method: Immortalized HEK293T cells or human colonic fibroblast cells (CCD-18Co; ATCC) were used. HEK293T cells were plated on […] cover slips and transiently transfected with 10 μg of Trpa1b plasmid (pCMV-zTrpa1b-FLAG) (SEQ ID NO:3) and 5 μg of mNeonGreen cDNA (Allele Biotechnology), then grown in a 6 cm plate for 24-48 h. CCD-18Co were cultured in Eagle's minimal essential medium with 10% FBS, 1× penicillin and streptomycin. CCD-18Co cells were plated on 12 mm cover slips and transiently transfected with 5 μg of zTrpa1b plasmid (pCMV-zTrpa1b-FLAG) together with 5 μg of mNeonGreen cDNA (Allele Biotechnology), then grown in a […] plate for 48-72 h. After this time, the cover slips were transferred to a recording chamber containing an extracellular solution composed of 145 mM sodium gluconate, 4 mM KCl, 3 mM MgCl2, 10 mM D-glucose, 10 mM HEPES; pH 7.4 adjusted with NaOH. The internal solution contained 122 mM cesium methane sulfonate, 1.8 mM MgCl2, 9 mM EGTA, 14 mM creatine phosphate (sodium salt), 4 mM Mg-ATP, 0.3 mM Na-GTP, 10 mM HEPES, pH 7.2 adjusted with CsOH. Borosilicate glass pipettes with a resistance of 3-5 MO were used. Whole cell currents were measured on an Axopatch 200B amplifier (Molecular De-vices) under the control of pClamp software. Signals were digitized through a Digidata1550B interface (Molecular Devices). Currents were filtered at 5 kHz (lowpass, Bessel) and sampled at 10 kHz prior to analysis with Clampfit software (Molecular Devices). All the plots and statistical tests were performed on Excel (Microsoft corp.). Basal Trpa1b whole cell currents were measured with a ramp protocol (˜100 to +100 mV, at a holding potential of 0 mV). Photoactive compounds were perfused into the recording chamber and a fluorescent light generated by mercury vapor short arc (U-HGLGPS, OLYMPUS) filtered through an ET-ECFP 434/17 nm filter and through a ET-mCherry 560 nm filter (Chroma Technology) was switched “on” and “off” for 10 s. All experiments were performed at room temperature. The p values were calculated using a two-tailed, paired Student's t-test.

mouse TRPA1 (mTRPA1) = target: T1, mouse TRPA1 (mTRPA1) (Mus musculus, UniProt Q8BLA8); assay: Rescue experiment, Trpa1b−/− embryos expressing mTRPA1 in Rohon-beard neurons; format: in vivo, zebrafish; details: 20 μM, motion within 5 s after 1 s WL3
T1 construct: 2A peptide (remnant stays on the channel) (C); mCherry (separated at the 2A site) (C, cleaved yes); expressed in transfected cells; host or cells: Rohon-Beard neurons of Trpa1b−/− zebrafish embryos, in vivo
Method: as §1, §2

[4] = system: zebrafish Trpa1a (zTrpa1a); assay: Rescue experiment, Trpa1b−/− embryos expressing zTrpa1a in Rohon-beard neurons; format: in vivo; details: 20 μM, motion within 5 s after 1 s WL3
Method: as §1, §2

[5] = UV-Vis absorbance, E/Z isomerization with violet and green light; format: physicochemical; details: UV-Vis absorbance in DMSO
Method: Compounds were dissolved in DMSO at 250 μM and 260 μM for TRPswitch-A and TRPswitch-B, respectively and UV-Vis absorbance was measured using a NanoDrop 1000 (Thermo Scientific).

[6] = system: zebrafish Trpa1b (zTrpa1b); assay: Rescue experiment, Trpa1b−/− embryos re-expressing zTrpa1b in Rohon-beard neurons; format: in vivo; details: 20 μM, motion within 5 s after 1 s WL3
Method: as §1, §2

T1 sequence (Q8BLA8 whole entry): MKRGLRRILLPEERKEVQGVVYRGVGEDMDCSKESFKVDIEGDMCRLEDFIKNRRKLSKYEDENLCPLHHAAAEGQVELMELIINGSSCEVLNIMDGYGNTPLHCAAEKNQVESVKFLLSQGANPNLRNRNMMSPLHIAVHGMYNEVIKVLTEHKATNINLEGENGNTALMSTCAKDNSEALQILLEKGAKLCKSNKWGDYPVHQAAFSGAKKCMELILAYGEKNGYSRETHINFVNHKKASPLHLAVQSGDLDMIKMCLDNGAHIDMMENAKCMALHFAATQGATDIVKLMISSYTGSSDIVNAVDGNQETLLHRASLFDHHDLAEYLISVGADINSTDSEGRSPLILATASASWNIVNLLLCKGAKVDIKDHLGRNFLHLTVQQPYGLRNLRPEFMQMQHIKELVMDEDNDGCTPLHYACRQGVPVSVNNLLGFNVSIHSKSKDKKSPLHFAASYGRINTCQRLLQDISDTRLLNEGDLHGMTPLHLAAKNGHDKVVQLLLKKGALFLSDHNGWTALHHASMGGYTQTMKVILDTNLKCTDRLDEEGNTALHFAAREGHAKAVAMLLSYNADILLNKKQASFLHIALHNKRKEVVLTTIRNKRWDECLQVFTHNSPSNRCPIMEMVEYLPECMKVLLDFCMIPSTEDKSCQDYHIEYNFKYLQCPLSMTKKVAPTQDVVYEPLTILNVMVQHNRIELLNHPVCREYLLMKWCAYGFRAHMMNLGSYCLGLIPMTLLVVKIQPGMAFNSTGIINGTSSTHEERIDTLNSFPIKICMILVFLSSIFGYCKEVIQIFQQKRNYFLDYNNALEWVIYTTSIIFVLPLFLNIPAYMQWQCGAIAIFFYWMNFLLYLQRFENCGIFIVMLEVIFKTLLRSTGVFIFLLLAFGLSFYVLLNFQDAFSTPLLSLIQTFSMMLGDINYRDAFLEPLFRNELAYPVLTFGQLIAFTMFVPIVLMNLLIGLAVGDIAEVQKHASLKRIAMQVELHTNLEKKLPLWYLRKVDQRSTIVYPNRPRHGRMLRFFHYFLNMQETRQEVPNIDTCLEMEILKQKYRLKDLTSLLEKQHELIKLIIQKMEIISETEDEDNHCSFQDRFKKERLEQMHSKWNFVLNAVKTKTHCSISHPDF

## Cc1nn(C)c(C)c1/N=N/c1ccc(NC(=O)c2cccs2)cc1NC(=O)c1cccs1 [Compound 9, (E)-N,N′-(4-((1,3,5-trimethyl-1H-pyrazol-4-yl)diazenyl)-1,3-phenylene)bis(thiophene-2-carboxamide)]
[1]
  heartbeat switching with light illumination: negative results
WT embryos
  % response: 65%
Trpa1b−/− embryos
  % response: 0%
Trpa1b; 1 h pre-incubation
  ventricle heartbeat after 1 s violet light: could be stopped
Trpa1b; after violet light
  ventricular rhythm after 1 s green light: re-stored
Zebrafish Trpa1b [2]
  photocurrent on green light: green light-induced decrease in photocurrent
  photocurrent on violet light: violet light-induced photocurrent
Zebrafish Trpa1b [3]; +100 mV
  current density fold increment after subsequent pulse of green light: 1.26±0.33 fold
  current density fold increment upon violet light illumination: 2.12±0.47 fold
Zebrafish Trpa1b [3]; −100 mV
  current density fold increment after subsequent pulse of green light: 1.41±0.38 fold
  current density fold increment upon violet light illumination: 2.27±0.38 fold
Mouse TRPA1 (mTRPA1)
  % response: 0%
[4]
  % response: 0%
[5]
  E/Z photoswitching with violet and green light: quantitative photoswitching in both directions
[5]; listed as TRPswitch-B
  E/Z photoswitching with violet and green light: complete return
[6]
  % response: 38.5%

Source: patent US20220280644A1, “"TRPswitch" - A STEP FUNCTION CHEMO-OPTOGENETIC LIGAND” (UNIVERSITY OF UTAH RESEARCH FOUNDATION, priority 2019, published 2022)
